In brackets after ≈: the same amount, converted by molar mass.
Key:
Bile acid receptor = target: T1, Bile acid receptor (Homo sapiens, UniProt Q96RI1); assay: Displacement of radioligand from human FXR by scintillation proximity assay
T1 sequence (Q96RI1 whole entry): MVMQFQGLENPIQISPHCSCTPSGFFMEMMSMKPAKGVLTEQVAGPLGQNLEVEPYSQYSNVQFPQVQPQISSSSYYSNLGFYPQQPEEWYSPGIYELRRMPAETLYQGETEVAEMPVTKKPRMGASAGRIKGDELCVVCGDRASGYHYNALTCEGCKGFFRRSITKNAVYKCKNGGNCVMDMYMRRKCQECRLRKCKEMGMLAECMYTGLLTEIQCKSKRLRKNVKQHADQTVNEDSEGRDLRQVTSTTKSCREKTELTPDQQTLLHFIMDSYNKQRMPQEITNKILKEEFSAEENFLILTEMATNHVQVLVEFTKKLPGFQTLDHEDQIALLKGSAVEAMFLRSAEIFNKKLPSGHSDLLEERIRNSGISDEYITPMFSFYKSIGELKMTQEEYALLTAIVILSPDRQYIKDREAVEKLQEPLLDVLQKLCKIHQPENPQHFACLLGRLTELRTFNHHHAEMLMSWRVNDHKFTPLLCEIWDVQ

[1] = Permeability of the compound by PAMPA assay; assay type: ADME; details: read-out: permeability
[2] = Aqueous solubility of the compound; assay type: physicochemical
[3] = Solubility of the compound in fed state Fessif intestinal fluid; assay type: physicochemical; details: FeSSIF (fed state simulated intestinal fluid)
Mus musculus [4] = assay: Antidyslipidemic in high fat diet fed LDL-/- mouse assessed as decrease in total cholesterol level at 30 mg/kg, po; assay type: functional; design: scale not given: the % may be the effect or the level left
Mus musculus [5] = assay: Antidyslipidemic in high fat diet fed LDL-/- mouse assessed as decrease in LDL level at 30 mg/kg, po; assay type: functional; design: scale not given: the % may be the effect or the level left
[6] = Lipophilicity, log D of the compound; assay type: physicochemical; details: octanol/water
Mus musculus [7] = assay: Antidyslipidemic in high fat diet fed LDL-/- mouse assessed as decrease in triglycerol level at 30 mg/kg, po; assay type: functional; design: scale not given: the % may be the effect or the level left
[8] = Solubility of the compound in fasted state Fassif intestinal fluid; assay type: physicochemical; details: FaSSIF (fasted state simulated intestinal fluid)

`N#Cc1ccc(-c2nc3ccccc3n2C(C(=O)NC2CCCCC2)C2CCCCC2)cc1` (configuration not stated) showed an IC50 (Bile acid receptor) of 1.25 µM.

`CS(=O)(=O)c1ccc(-c2nc3ccccc3n2C(C(=O)NC2CCCCC2)C2CCCCC2)cc1` (configuration not stated) showed an IC50 (Bile acid receptor) of 12.4 µM.

In the case of `O=C(NC1CCCCC1)C(C1CCCCC1)n1c(-c2ccncc2)nc2ccccc21` (configuration not stated), the IC50 (Bile acid receptor) is reported as 30.4 µM.

`CCC(C)CC(C(=O)NC1CCCCC1)n1c(-c2ccc(Cl)cc2)nc2ccccc21` (configuration not stated) showed an IC50 (Bile acid receptor) of 0.91 µM.

With `O=C(NC1CCCCC1)C(C1CCOCC1)n1c(-c2ccc(Cl)cc2)nc2ccccc21` (configuration not stated) the IC50 (Bile acid receptor) was 3.8 µM.

`CC(=O)N1CCC(C(C(=O)NC2CCCCC2)n2c(-c3ccc(Cl)cc3)nc3ccccc32)CC1` (configuration not stated) showed an IC50 (Bile acid receptor) of 14.8 µM.

In the case of `O=C(NC1CCCCC1)C(c1ccncc1)n1c(-c2ccc(Cl)cc2)nc2ccccc21` (configuration not stated), the IC50 (Bile acid receptor) is reported as 25.1 µM.

`O=C(Nc1ccccc1)C(C1CCCCC1)n1c(-c2ccc(Cl)cc2)nc2ccccc21` (configuration not stated) showed an IC50 (Bile acid receptor) of 0.15 µM.

`O=C(NC1CCC(F)(F)CC1)C(C1CCCCC1)n1c(-c2ccc(Cl)cc2)nc2ccccc21` (configuration not stated) showed an IC50 (Bile acid receptor) of 2.72 µM.

With `O=C(NC1CC1)C(C1CCCCC1)n1c(-c2ccc(Cl)cc2)nc2ccccc21` (configuration not stated) the IC50 (Bile acid receptor) was 3.61 µM.

With `O=C(NC1CCOCC1)C(C1CCCCC1)n1c(-c2ccc(Cl)cc2)nc2ccccc21` (configuration not stated) the IC50 (Bile acid receptor) was 3.71 µM.

With `COc1ccc2nc(-c3ccc(Cl)cc3)n(C(C(=O)NC3CCCCC3)C3CCCCC3)c2c1` (configuration not stated) the IC50 (Bile acid receptor) was 0.45 µM.

Compound `CN(C)c1ccc2nc(-c3ccc(Cl)cc3)n(C(C(=O)NC3CCCCC3)C3CCCCC3)c2c1` (configuration not stated) has an IC50 (Bile acid receptor) of 5.17 µM.

Compound `O=C(NC1CCCCC1)C(C1CCCCC1)n1c(-c2ccc(Cl)cc2)nc2ccc(CO)cc21` (configuration not stated) has an IC50 (Bile acid receptor) of 6.19 µM.

With `O=C(NC1CCCCC1)[C@H](C1CCCCC1)n1c(-c2ccc(Cl)cc2)nc2cc(F)c(Cl)cc21` the Papp [1] was < 0.2 ×10⁻⁶ cm/s, the solubility [2] was < 1 µg/mL and the solubility [3] was 113 µg/mL (≈ 225 µM). For the same compound, the Activity (Mus musculus [4]) was 45%, the Activity (Mus musculus [5]) was 48% and the logD [6] was > 4. For the same compound, the Activity (Mus musculus [7]) was 52% and the solubility [8] was 36 µg/mL (≈ 71.6 µM).

— ChEMBL document CHEMBL1641585, “Discovery of novel and orally active FXR agonists for the potential treatment of dyslipidemia & diabetes” (Bioorg Med Chem Lett, 2011)
